Measurements as given in patent US20110039770A1, “INHIBITORS OF PROTEIN KINASE C ISOFORMS AND USES THEREOF” (PHARMAGAP INC., priority 2005, published 2011).
Read-outs that look alike come from different tables or passages of the source. Where a SMILES comes first, the peptide text is derived from it. The star is where a group is joined. PNA(A) = NCCN(CC(=O)*)C(=O)Cn1cnc2c(N)ncnc21

What was measured:
[1] = tested on: IMR-32 human neuroblastoma cells
Experimental: The ability of compounds PKI 1, PKI 2 and PKI 3 to inhibit cancer cell proliferation was tested in vitro using the human neuroblastoma cell line IMR-32. Monolayer cell cultures were trypsinized and the test compound was added at the doses indicated in Table 24 and internalized by pinocytic endocytosis using Influx TM pinocytic cell-loading reagent, a kit from Molecular Probes (Eugene, Oreg.) following the manufacturer's recommendations. The indicated doses refer to the concentration in the loading medium, which was used on 1×10^6 cells in a 10 μl volume, i.e. contained 10 μg to 100 ug of test compound that provides […] per cell. […] The cells were treated on day 0 of the experiment. The cells loaded with test compound were cultured in 96 well plates (5,000 cells in 100 μl per well), and the proliferation was monitored over 3 consecutive days. The increase in cell population was quantified using a Hoechst reagent-based assay (modified from Rao and Otto, 1992, Analytical Biochem. 207:186-192) that measures the total DNA of the population. Fluorescence was measured using a Millipore CytoFluor 2350 plate reader (excitation at 360 nm and emission at 460 nm). The measurements were obtained as relative fluorescence intensity, a value that is directly correlated to the total number of cells. Data are expressed as a percentage of matching controls that were supplemented with culture medium alone.
The ability of the compound TIM 9 to inhibit cancer cell proliferation was tested in vitro using the human neuroblastoma cell line IMR-32 and following the general protocol described in Example 14.
The ability of the compound TIM 11 to inhibit IMR-32 cancer cell proliferation was tested in vitro following the general protocol described in Example 14.
The ability of the compound TIM 10 to inhibit cancer cell proliferation was tested in vitro using the human neuroblastoma IMR-32 cell line and following the general protocol described in Example 14.

[2] = biological target: T1, PKC beta 2 (Homo sapiens, UniProt P05771); experiment: PepTag Non-Radioactive PKC Assay, purified isoform; type: biochemical; details: negative = activation
T1 construct: purchased
T1 sequence (P05771 1-673 isoform P05771-2): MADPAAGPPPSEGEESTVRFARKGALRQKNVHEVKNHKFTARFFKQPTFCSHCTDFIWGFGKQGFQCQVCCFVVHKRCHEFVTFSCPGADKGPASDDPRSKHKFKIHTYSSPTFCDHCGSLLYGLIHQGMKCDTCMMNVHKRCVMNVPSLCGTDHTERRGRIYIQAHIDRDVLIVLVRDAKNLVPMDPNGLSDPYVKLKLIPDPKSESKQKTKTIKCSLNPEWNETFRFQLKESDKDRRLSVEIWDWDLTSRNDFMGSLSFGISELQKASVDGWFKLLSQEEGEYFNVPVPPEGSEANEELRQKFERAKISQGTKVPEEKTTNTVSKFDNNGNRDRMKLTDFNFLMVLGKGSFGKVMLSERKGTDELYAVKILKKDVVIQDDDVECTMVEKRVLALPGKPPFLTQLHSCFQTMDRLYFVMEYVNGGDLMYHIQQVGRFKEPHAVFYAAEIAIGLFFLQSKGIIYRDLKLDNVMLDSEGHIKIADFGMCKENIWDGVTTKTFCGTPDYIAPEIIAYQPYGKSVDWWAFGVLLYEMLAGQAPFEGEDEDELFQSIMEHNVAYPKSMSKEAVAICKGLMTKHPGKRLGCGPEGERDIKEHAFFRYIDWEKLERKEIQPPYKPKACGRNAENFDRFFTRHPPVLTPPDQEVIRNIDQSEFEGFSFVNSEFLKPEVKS
Experimental: (§1) The inhibitory effect of the PKI compounds 1 to 10 on purified commercially available isoforms representative of the 3 classes of PKC: cPKC (alpha, betaI/II) nPKC (delta and epsilon) aPKC (zeta) was assayed using the PepTag® Non-Radioactive PKC Assay (Promega, Madison, Wis.). The zeta isoform was tested with this assay although its affinity for the substrate provided in the kit was relatively low. The amount of enzyme in the reaction mixture for the PKC zeta assays was multiplied by 2. The assay was used following the manufacturer's recommendations. The principle of the assay is based on the difference in charge of phosphorylated (negatively charged) form versus the non-phoshorylated form of a fluorescent substrate. The two forms can be separated by gel electrophoresis and the negatively charged band excised and the fluorescence measured (exc. 440 nm and em. 590 nm) in 96 well plates on a Galaxy FluoStar plate reader. The PKI compounds were added to the assay mixture at 3 doses: 150, 300 and 600 μM and an extra 75 μM when the inhibition was too high. The assay is strictly biochemical and the doses of the compounds used, therefore, are generally not correlative with in vivo situations.

[3] = biological target: PKC delta (Homo sapiens, UniProt Q05655); experiment: PepTag Non-Radioactive PKC Assay, purified isoform; type: biochemical; details: negative = activation
Sequence of PKC delta (Q05655 whole entry, canonical isoform): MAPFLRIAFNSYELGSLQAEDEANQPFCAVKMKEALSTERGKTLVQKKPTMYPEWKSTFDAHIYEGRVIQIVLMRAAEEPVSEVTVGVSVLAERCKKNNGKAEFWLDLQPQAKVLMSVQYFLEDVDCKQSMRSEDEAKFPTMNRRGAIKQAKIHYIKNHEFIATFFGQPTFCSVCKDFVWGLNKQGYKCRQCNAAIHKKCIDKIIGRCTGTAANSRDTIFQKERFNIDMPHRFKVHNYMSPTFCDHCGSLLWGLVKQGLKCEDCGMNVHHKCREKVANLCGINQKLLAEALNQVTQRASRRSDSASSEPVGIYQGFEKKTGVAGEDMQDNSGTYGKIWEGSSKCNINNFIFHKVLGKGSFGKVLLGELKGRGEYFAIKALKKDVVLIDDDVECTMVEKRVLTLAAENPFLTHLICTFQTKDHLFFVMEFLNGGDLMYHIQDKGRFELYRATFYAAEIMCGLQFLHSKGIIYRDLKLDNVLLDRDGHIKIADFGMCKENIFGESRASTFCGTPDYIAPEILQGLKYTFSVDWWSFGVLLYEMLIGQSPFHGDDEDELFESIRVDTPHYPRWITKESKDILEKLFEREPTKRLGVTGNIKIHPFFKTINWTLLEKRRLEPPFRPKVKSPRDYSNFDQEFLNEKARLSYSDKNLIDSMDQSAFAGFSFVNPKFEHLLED
Experimental: as §1

[4] = biological target: PKC alpha (Homo sapiens, UniProt P17252); experiment: PepTag Non-Radioactive PKC Assay, purified isoform; type: biochemical; set-up: purchased; details: negative = activation
Experimental: as §1

[5] = biological target: PKC beta 1 (Homo sapiens, UniProt P05771); experiment: PepTag Non-Radioactive PKC Assay, purified isoform; type: biochemical; set-up: purchased; details: negative = activation
Sequence of PKC beta 1 (P05771 whole entry, canonical isoform): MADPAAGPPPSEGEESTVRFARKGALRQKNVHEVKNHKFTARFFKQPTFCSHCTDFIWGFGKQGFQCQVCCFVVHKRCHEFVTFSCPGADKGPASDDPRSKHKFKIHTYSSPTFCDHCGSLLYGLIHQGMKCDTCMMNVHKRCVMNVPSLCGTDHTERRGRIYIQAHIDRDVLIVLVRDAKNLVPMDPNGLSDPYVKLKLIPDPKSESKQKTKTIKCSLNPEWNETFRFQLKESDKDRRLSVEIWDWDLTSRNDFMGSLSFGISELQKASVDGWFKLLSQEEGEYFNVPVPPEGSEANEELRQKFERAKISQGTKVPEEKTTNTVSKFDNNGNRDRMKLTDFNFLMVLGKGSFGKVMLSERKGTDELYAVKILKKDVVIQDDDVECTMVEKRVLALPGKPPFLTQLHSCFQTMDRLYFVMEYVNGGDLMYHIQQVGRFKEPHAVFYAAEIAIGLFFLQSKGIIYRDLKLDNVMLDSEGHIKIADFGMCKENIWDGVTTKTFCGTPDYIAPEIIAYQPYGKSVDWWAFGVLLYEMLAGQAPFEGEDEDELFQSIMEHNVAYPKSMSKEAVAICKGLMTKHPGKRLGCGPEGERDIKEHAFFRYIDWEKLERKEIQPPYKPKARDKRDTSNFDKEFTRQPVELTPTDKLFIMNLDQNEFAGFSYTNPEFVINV
Experimental: as §1

[6] = biological target: T2, PKC epsilon (Homo sapiens, UniProt Q02156); experiment: PepTag Non-Radioactive PKC Assay, purified isoform; type: biochemical; set-up: purchased; details: negative = activation
T2 sequence (Q02156 1-737): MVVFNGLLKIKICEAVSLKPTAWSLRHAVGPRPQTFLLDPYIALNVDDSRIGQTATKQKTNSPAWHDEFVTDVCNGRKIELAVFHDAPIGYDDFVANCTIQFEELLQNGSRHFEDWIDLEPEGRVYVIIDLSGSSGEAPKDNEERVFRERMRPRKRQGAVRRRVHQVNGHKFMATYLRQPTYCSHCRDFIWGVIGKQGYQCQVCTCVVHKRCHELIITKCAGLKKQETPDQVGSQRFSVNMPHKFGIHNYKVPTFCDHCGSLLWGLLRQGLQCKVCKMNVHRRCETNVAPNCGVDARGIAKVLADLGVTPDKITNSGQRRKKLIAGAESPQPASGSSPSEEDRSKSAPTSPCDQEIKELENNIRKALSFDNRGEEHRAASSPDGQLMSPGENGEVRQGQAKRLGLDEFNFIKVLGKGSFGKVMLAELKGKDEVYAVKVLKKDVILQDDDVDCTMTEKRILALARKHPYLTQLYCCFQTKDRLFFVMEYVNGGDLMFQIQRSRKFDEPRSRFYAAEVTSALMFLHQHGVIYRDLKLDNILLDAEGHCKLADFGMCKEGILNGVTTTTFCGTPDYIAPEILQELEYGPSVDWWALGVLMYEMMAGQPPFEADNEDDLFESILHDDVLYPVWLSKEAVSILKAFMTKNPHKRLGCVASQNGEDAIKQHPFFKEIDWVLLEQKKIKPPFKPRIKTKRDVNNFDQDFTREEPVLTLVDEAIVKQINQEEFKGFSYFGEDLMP
Experimental: as §1

[7] = biological target: T3, PKC zeta (Homo sapiens, UniProt Q05513); experiment: PepTag Non-Radioactive PKC Assay, purified isoform; type: biochemical; set-up: purchased; details: enzyme amount x2, negative = activation
T3 sequence (Q05513 1-592): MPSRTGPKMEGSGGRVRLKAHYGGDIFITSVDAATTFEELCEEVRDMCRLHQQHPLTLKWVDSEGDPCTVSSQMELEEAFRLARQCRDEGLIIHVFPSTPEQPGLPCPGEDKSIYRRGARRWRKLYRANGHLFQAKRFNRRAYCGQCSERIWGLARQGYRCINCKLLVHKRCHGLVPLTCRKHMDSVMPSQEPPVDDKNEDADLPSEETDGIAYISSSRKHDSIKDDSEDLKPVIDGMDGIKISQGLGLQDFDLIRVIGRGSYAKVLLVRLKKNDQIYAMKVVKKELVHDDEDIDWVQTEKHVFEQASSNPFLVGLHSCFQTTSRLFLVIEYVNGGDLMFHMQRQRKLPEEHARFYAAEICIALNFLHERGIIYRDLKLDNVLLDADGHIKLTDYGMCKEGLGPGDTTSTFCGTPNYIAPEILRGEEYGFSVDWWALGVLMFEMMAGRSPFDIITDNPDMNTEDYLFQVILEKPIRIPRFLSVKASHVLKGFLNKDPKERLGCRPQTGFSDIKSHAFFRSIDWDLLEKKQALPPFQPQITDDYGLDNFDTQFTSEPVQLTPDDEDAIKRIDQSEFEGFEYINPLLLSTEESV
Experimental: as §1

Q: Which results are given for `CC(=O)N[C@@H](Cc1ccccc1)C(=O)N[C@@H](CCCNC(=N)N)C(=O)N[C@@H](CCCNC(=N)N)C(=O)N[C@@H](CCCCNC(=O)CN(CCN)C(=O)Cn1cnc2c(N)ncnc21)C(=O)N[C@@H](Cc1ccccc1)C(=O)N[C@@H](CCCNC(=N)N)C(=O)N[C@@H](CC(C)C)C(N)=O` [PKI 3] (Ac-FRRK(PNA(A))FRL-NH2; C-terminus assumed)?
A: % Inhibition of IMR-32 proliferation ([1]; 1.0 mg/mL in loading medium, 24 h): 70%; % Inhibition of IMR-32 proliferation ([1]; 1.0 mg/mL in loading medium, 48 h): 72%; % Inhibition of IMR-32 proliferation ([1]; 1.0 mg/mL in loading medium, 72 h): 72%; % Inhibition of IMR-32 proliferation ([1]; 2.5 mg/mL in loading medium, 24 h): 26%; % Inhibition of IMR-32 proliferation ([1]; 2.5 mg/mL in loading medium, 48 h): 29%; % Inhibition of IMR-32 proliferation ([1]; 2.5 mg/mL in loading medium, 72 h): 14%; % Inhibition of IMR-32 proliferation ([1]; 5.0 mg/mL in loading medium, 24 h): 29%; % Inhibition of IMR-32 proliferation ([1]; 5.0 mg/mL in loading medium, 48 h): 31%; % Inhibition of IMR-32 proliferation ([1]; 5.0 mg/mL in loading medium, 72 h): 22%; % Inhibition of IMR-32 proliferation ([1]; 10.0 mg/mL in loading medium, 24 h): 26%; % Inhibition of IMR-32 proliferation ([1]; 10.0 mg/mL in loading medium, 48 h): 30%; % Inhibition of IMR-32 proliferation ([1]; 10.0 mg/mL in loading medium, 72 h): 22%; inhibition at 150 µM ([2]; 150 μM): 31%; inhibition at 300 µM ([2]; 300 μM): 83%; inhibition at 600 µM ([2]; 600 μM): 81%; inhibition at 150 µM ([3]; 150 μM): 32%; inhibition at 300 µM ([3]; 300 μM): 41%; inhibition at 600 µM ([3]; 600 μM): 70%; inhibition at 150 µM ([4]; 150 μM): 47%; inhibition at 300 µM ([4]; 300 μM): 51%; inhibition at 600 µM ([4]; 600 μM): 82%; inhibition at 150 µM ([5]; 150 μM): 37%; inhibition at 300 µM ([5]; 300 μM): 76%; inhibition at 600 µM ([5]; 600 μM): 80%; inhibition at 150 µM ([6]; 150 μM): 38%; inhibition at 300 µM ([6]; 300 μM): 53%; inhibition at 600 µM ([6]; 600 μM): 68%; inhibition at 150 µM ([7]; 150 μM): 37%; inhibition at 300 µM ([7]; 300 μM): 40%; inhibition at 600 µM ([7]; 600 μM): 56%
